Measured values from patent publication US20240400591A1 (Jacobio Pharmaceuticals Co., Ltd., priority 2021, published 2024).

Target: T1, His-p53 Y220C (94-294) protein (Homo sapiens, UniProt P04637, Y220C)
T1 construct: His-p53 Y220C (94-294) protein
Test: In vitro DNA binding assay (HTRF)
Type: biochemical
Settings: % activation normalized to 2 μM Ref-1a high control

Row | EC50 | Structure (SMILES)
1 | 44 nM | COc1cc(S(C)(=O)=O)ccc1NCC#Cc1sc2c(NC3CCN(C)CC3F)cccc2c1CC(F)(F)F (centres unmarked) [Example 2, (Z)-3-fluoro-N-(2-(3-((2-methoxy-4-(methylsulfonyl)phenyl)amino)prop-1-yn-1-yl)-3-(2,2,2-trifluoroethyl)benzo[b]thiophen-7-yl)-1-methylpiperidin-4-amine]
2 | 81 nM | COc1cc(S(C)(=O)=O)ccc1NCC#Cc1sc2c(NC3CCN(C)CC3)cccc2c1CC(F)(F)F [Example 3, N-(2-(3-((2-methoxy-4-(methylsulfonyl)phenyl)amino)prop-1-yn-1-yl)-3-(2,2,2-trifluoroethyl)benzo[b]thiophen-7-yl)-1-methylpiperidin-4-amine]
3 | 114 nM | CN1CCC(Nc2cccc3c(CC(F)(F)F)c(C#CCNc4ccc(P(C)(C)=O)cc4)sc23)CC1 [Example 9, dimethyl(4-((3-(7-((1-methylpiperidin-4-yl)amino)-3-(2,2,2-trifluoroethyl)benzo[b]thiophen-2-yl)prop-2-yn-1-yl)amino)phenyl)phosphine oxide]
4 | 390 nM | COc1cc(P(C)(C)=O)ccc1NCC#Cc1sc2c(NC3CCN(C)CC3(F)F)cccc2c1CC(F)(F)F (centres unmarked) [Example 43, (4-((3-(7-((3,3-difluoro-1-methylpiperidin-4-yl)amino)-3-(2,2,2-trifluoroethyl)benzo[b]thiophen-2-yl)prop-2-yn-1-yl)amino)-3-methoxyphenyl)dimethylphosphine oxide]
5 | 2790 nM | C[C@@H](C#Cc1sc2c(NC3CCN(C)CC3)cccc2c1CC(F)(F)F)Nc1ccc(S(N)(=O)=O)cc1 [Example 45, (S)-4-((4-(7-((1-methylpiperidin-4-yl)amino)-3-(2,2,2-trifluoroethyl)benzo[b]thiophen-2-yl)but-3-yn-2-yl)amino)benzenesulfonamide]
6 | 84 nM | COc1cc(C(=O)N2CCS(=O)(=O)CC2)ccc1NCC#Cc1sc2c(N[C@H]3CCN(C)C[C@H]3F)cccc2c1CC(F)(F)F (racemic) [Example 48, (1,1-dioxidothiomorpholino)(4-((3-(7-(((3R,4S)-3-fluoro-1-methylpiperidin-4-yl)amino)-3-(2,2,2-trifluoroethyl)benzo[b]thiophen-2-yl)prop-2-yn-1-yl)amino)-3-methoxyphenyl)methanone]
7 | 122 nM | COc1cc(S(C)(=O)=O)ccc1NCC#Cc1sc2c(NC3CCCN(C)CC3)cccc2c1CC(F)(F)F (centres unmarked) [Example 55, N-(2-(3-((2-methoxy-4-(methylsulfonyl)phenyl)amino)prop-1-yn-1-yl)-3-(2,2,2-trifluoroethyl)benzo[b]thiophen-7-yl)-1-methylazepan-4-amine]
8 | 1030 nM | COc1cc(P(C)(C)=O)ccc1NCC#Cc1sc2c(NC3CCN(C)CC3)ccnc2c1CC(F)(F)F [Example 71, (3-methoxy-4-((3-(7-((1-methylpiperidin-4-yl)amino)-3-(2,2,2-trifluoroethyl)thieno[3,2-b]pyridin-2-yl)prop-2-yn-1-yl)amino)phenyl)dimethylphosphine oxide]
9 | 151 nM | COc1cc(P(C)(C)=O)ccc1NCC#Cc1sc2c(N[C@@H]3CCN(C4CCS(=O)(=O)CC4)C[C@@H]3F)cccc2c1CC(F)(F)F (relative stereo) [Example 93, (Z)—N-[2-[3-(4-dimethylphosphoryl-2-methoxy-anilino)prop-1-ynyl]-3-(2,2,2-trifluoroethyl)benzothiophen-7-yl]-1-(1,1-dioxothian-4-yl)-3-fluoro-piperidin-4-amine]
10 | 235 nM | COc1cc(S(C)(=O)=O)ccc1NCC#Cc1sc2c(NC3CC4CC3CN4C)cccc2c1CC(F)(F)F (centres unmarked) [Example 27, N-(2-(3-((2-methoxy-4-(methylsulfonyl)phenyl)amino)prop-1-yn-1-yl)-3-(2,2,2-trifluoroethyl)benzo[b]thiophen-7-yl)-2-methyl-2-azabicyclo[2.2.1]heptan-5-amine]
11 | 60 nM | COc1cc(S(N)(=O)=O)ccc1NCC#Cc1sc2c(NC3CCN(C)CC3F)cccc2c1CC(F)(F)F (centres unmarked) [Example 40, 4-((3-(7-(((Z)-3-fluoro-1-methylpiperidin-4-yl)amino)-3-(2,2,2-trifluoroethyl)benzo[b]thiophen-2-yl)prop-2-yn-1-yl)amino)-3-methoxybenzenesulfonamide]
12 | 112 nM | CNC(=O)c1ccc(NCC#Cc2sc3c(NC4CCN(C)CC4)cccc3c2CC(F)(F)F)c(OC)c1 [Example 8, 3-methoxy-N-methyl-4-((3-(7-((1-methylpiperidin-4-yl)amino)-3-(2,2,2-trifluoroethyl)benzo[b]thiophen-2-yl)prop-2-yn-1-yl)amino)benzamide]
13 | 32 nM | CN1CC[C@H](Nc2cccc3c(CC(F)(F)F)c(C#CCNc4ccc(S(N)(=O)=O)cc4)sc23)[C@H](F)C1 (racemic) [Example 5, 4-((3-(7-(((3R,4S)-3-fluoro-1-methylpiperidin-4-yl)amino)-3-(2,2,2-trifluoroethyl)benzo[b]thiophen-2-yl)prop-2-yn-1-yl)amino)benzenesulfonamide]
14 | 199 nM | COCCOc1cc(S(C)(=O)=O)ccc1NCC#Cc1sc2c(NC3CCN(C)CC3)cccc2c1CC(F)(F)F [Example 14, N-[2-[3-[2-(2-methoxyethoxy)-4-methylsulfonyl-anilino]prop-1-ynyl]-3-(2,2,2-trifluoroethyl)benzothiophen-7-yl]-1-methyl-piperidin-4-amine]
15 | 133 nM | CNC(=O)c1ccc(NCC#Cc2sc3c(N[C@@H]4CCN(C)C[C@@H]4F)cccc3c2CC(F)(F)F)c(C#N)c1 (racemic) [Example 95, 3-cyano-4-((3-(7-(((Z)-3-fluoro-1-methylpiperidin-4-yl)amino)-3-(2,2,2-trifluoroethyl)benzo[b]thiophen-2-yl)prop-2-yn-1-yl)amino)-N-methylbenzamide]
16 | 211 nM | COc1nc(P(C)(C)=O)cnc1NCC#Cc1sc2c(N[C@@H]3CCN(C)C[C@@H]3F)cccc2c1CC(F)(F)F [Example 209, (5-((3-(7-(((3S,4R)-3-fluoro-1-methylpiperidin-4-yl)amino)-3-(2,2,2-trifluoroethyl)benzo[b]thiophen-2-yl)prop-2-yn-1-yl)amino)-6-methoxypyrazin-2-yl)dimethylphosphine oxide]
17 | 188 nM | COCCCN1CCC(Nc2cccc3c(CC(F)(F)F)c(C#CCNc4ccc(S(C)(=O)=O)cc4OC)sc23)CC1 [Example 20, N-[2-[3-(2-methoxy-4-methylsulfonyl-anilino)prop-1-ynyl]-3-(2,2,2-trifluoroethyl)benzothiophen-7-yl]-1-(3-methoxypropyl)piperidin-4-amine]
18 | 178 nM | CN1CC[C@@H](Nc2cccc3c(CC(F)(F)F)c(C#CCNc4ccc(S(C)(=O)=O)cc4P(C)(C)=O)sc23)[C@@H](F)C1 [Example 171, (2-((3-(7-(((3S,4R)-3-fluoro-1-methylpiperidin-4-yl)amino)-3-(2,2,2-trifluoroethyl)benzo[b]thiophen-2-yl)prop-2-yn-1-yl)amino)-5-(methylsulfonyl)phenyl)dimethylphosphine oxide]
19 | 120 nM | CN1CC[C@@H](Nc2cccc3c(CC(F)(F)F)c(C#CCNc4ccc(P(C)(C)=O)c5c4OC(F)(F)O5)sc23)[C@@H](F)C1 [Example 164, (2,2-difluoro-7-((3-(7-(((3S,4R)-3-fluoro-1-methylpiperidin-4-yl)amino)-3-(2,2,2-trifluoroethyl)benzo[b]thiophen-2-yl)prop-2-yn-1-yl)amino)benzo[d][1,3]dioxol-4-yl)dimethylphosphine oxide]
20 | 452 nM | CN1CCC(Nc2cccc3c(CC(F)(F)F)c(C#CCNc4cccc5c(C6CCNCC6)c[nH]c45)sc23)CC1 [Example 30, N-(3-(7-((1-methylpiperidin-4-yl)amino)-3-(2,2,2-trifluoroethyl)benzo[b]thiophen-2-yl)prop-2-yn-1-yl)-3-(piperidin-4-yl)-1H-indol-7-amine]
21 | 205 nM | COc1cc(P(C)(C)=O)cc(F)c1NCC#Cc1sc2c(N[C@@H]3CCN(C)C[C@@H]3F)cccc2c1CC(F)(F)F [Example 206, (3-fluoro-4-((3-(7-(((3S,4R)-3-fluoro-1-methylpiperidin-4-yl)amino)-3-(2,2,2-trifluoroethyl)benzo[b]thiophen-2-yl)prop-2-yn-1-yl)amino)-5-methoxyphenyl)dimethylphosphine oxide]
22 | 124 nM | COc1cc(S(C)(=O)=O)ccc1NCC#Cc1sc2c(NC3CCC(N(C)C)CC3)cccc2c1CC(F)(F)F (centres unmarked) [Example 16, N1-(2-(3-((2-methoxy-4-(methylsulfonyl)phenyl)amino)prop-1-yn-1-yl)-3-(2,2,2-trifluoroethyl)benzo[b]thiophen-7-yl)-N4,N4-dimethylcyclohexane-1,4-diamine]
23 | 147 nM | COc1cc(P(C)(C)=O)ccc1OCC#Cc1sc2c(N[C@@H]3CCN(C)C[C@@H]3F)cccc2c1CC(F)(F)F (racemic) [Example 123, (4-((3-(7-(((Z)-3-fluoro-1-methylpiperidin-4-yl)amino)-3-(2,2,2-trifluoroethyl)benzo[b]thiophen-2-yl)prop-2-yn-1-yl)oxy)-3-methoxyphenyl)dimethylphosphine oxide]
24 | 20 nM | COc1cc(C(=O)NC2CCN(C)CC2)ccc1NCC#Cc1sc2c(NC3CCN(C)CC3F)cccc2c1CC(F)(F)F (racemic) [Example 47, 4-((3-(7-((3-fluoro-1-methylpiperidin-4-yl)amino)-3-(2,2,2-trifluoroethyl)benzo[b]thiophen-2-yl)prop-2-yn-1-yl)amino)-3-methoxy-N-(1-methylpiperidin-4-yl)benzamide]

Row | Structure (SMILES) | EC50
25 | COc1cc(P(C)(C)=O)ccc1NCC#Cc1sc2c(NC3CCN(C)CC3F)cccc2c1CC#N (centres unmarked) [Example 133, 2-(2-(3-((4-(dimethylphosphoryl)-2-methoxyphenyl)amino)prop-1-yn-1-yl)-7-(((E)-3-fluoro-1-methylpiperidin-4-yl)amino)benzo[b]thiophen-3-yl)acetonitrile] | 311 nM
26 | CCN1CC[C@@H](Nc2cccc3c(CC(F)(F)F)c(C#CCNc4ccc(P(C)(C)=O)cc4OC)sc23)[C@@H](F)C1 (racemic) [Example 100, (4-((3-(7-(((Z)-1-ethyl-3-fluoropiperidin-4-yl)amino)-3-(2,2,2-trifluoroethyl)benzo[b]thiophen-2-yl)prop-2-yn-1-yl)amino)-3-methoxyphenyl)dimethylphosphine oxide] | 40 nM
